Assay results from ChEMBL document CHEMBL4680356, “Discovery of a novel 53BP1 inhibitor through AlphaScreen-based high-throughput screening” (Bioorg Med Chem, 2021).

Assays:
TP53-binding protein 1 [1] = target: T1, TP53-binding protein 1 (Homo sapiens, UniProt Q12888); experiment: Inhibition of recombinant human N-terminal His6-tagged 53BP1 TTD (1484 to1603 residues) expressed in Escherichia coli BL21 (DE3) cells using Biotin-H4K2Ome2 as substrate preincubated for 30 mins followed by substrate addition and measured after 30 mins by AlphaScreen assay
T1 sequence (Q12888 whole entry, the tested form may be a part): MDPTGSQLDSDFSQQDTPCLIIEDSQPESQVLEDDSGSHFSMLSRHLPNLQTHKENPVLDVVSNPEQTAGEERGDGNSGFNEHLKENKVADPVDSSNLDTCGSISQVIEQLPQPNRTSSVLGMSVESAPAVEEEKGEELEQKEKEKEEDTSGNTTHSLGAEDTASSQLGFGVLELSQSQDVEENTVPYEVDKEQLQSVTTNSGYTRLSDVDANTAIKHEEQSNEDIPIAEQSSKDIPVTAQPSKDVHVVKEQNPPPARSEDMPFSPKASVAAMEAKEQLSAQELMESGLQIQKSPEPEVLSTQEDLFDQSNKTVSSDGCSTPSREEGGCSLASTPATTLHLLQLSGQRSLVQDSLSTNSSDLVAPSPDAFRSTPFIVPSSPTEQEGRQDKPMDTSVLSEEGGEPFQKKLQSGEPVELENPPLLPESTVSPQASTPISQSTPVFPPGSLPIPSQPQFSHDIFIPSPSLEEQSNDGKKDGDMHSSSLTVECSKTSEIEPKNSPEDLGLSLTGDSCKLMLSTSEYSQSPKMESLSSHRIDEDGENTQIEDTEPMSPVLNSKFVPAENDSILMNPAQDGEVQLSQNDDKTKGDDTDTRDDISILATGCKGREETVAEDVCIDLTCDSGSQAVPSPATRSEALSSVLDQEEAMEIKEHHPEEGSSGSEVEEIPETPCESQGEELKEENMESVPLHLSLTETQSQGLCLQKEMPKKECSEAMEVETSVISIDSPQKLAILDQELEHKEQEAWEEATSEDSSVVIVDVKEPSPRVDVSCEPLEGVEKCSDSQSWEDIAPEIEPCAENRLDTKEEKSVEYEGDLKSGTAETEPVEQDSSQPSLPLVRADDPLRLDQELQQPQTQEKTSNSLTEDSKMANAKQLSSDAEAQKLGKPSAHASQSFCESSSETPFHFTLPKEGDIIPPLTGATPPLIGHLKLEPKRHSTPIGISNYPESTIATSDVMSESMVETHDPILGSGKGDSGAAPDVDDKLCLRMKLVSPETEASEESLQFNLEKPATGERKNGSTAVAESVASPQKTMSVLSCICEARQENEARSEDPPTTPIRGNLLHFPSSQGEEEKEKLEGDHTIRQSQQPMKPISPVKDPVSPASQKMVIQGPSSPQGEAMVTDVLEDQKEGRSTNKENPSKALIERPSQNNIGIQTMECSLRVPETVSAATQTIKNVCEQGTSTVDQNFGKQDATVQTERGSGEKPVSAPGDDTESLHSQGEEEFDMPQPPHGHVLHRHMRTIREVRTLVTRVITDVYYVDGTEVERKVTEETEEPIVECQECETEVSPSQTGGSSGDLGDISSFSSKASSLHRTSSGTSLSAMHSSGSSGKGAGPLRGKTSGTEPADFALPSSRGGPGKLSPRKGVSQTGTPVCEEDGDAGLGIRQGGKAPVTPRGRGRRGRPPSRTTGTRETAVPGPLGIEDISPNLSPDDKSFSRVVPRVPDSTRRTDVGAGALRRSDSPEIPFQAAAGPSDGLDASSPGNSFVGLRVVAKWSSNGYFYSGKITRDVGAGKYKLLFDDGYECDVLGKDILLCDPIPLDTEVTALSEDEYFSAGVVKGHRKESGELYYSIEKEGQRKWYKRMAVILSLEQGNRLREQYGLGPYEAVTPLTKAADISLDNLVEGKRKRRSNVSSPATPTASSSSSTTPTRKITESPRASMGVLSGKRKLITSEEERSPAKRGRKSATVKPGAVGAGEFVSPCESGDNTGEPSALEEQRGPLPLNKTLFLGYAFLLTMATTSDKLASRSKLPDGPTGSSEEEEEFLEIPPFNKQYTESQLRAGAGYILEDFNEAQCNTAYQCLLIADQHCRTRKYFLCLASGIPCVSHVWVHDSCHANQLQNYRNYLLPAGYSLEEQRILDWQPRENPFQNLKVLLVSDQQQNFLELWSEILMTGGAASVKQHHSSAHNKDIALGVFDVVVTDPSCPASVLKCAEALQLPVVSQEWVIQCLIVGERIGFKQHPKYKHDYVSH

TP53-binding protein 1 [2] = target: T1, TP53-binding protein 1; experiment: Binding affinity to recombinant human N-terminal His6-tagged lysine dye- labeled 53BP1 TTD (1484 to1603 residues) expressed in Escherichia coli BL21 (DE3) cells incubated for 10 mins by MST assay
TP53-binding protein 1 [3] = target: T1, TP53-binding protein 1; experiment: Binding affinity to recombinant human N-terminal His6-tagged 53BP1 TTD (1484 to1603 residues) expressed in Escherichia coli BL21 (DE3) cells by SPR analysis

SMILES | IC50 (TP53-binding protein 1 [1]) [µM] | Kd (TP53-binding protein 1 [2]) [µM] | Kd (TP53-binding protein 1 [3]) [µM]
Cc1cc(N(C)C)nc2ccc(NC(=O)/C=C/c3ccco3)cc12 | 4.2 | – | –
O=C(/C=C/c1ccco1)Nc1cccc2ncccc12 | > 50 | – | –
Cc1cc(N2CCCCC2)nc2ccc(NC(=O)/C=C/c3ccco3)cc12 | 15.1 | – | –
Cc1cc2cc(NC(=O)/C=C/c3ccco3)ccc2[nH]1 | 22.3 | – | –
CCN(CC)c1cc(C)c2cc(NC(=O)/C=C/c3ccco3)ccc2n1 | 1.69 | 2.69 | 2.7
CN(C)c1ccc2cc(NC(=O)/C=C/c3cccc4cccnc34)ccc2n1 | > 50 | – | –
CCN(CC)c1cc(C)c2cc(N(C)C(=O)/C=C/c3ccco3)ccc2n1 | 17.8 | – | –
CCN(CC)c1cc(C)c2cc(NC(=O)/C=C/c3ccc4ccoc4c3)ccc2n1 | > 50 | – | –
CCN(CC)c1cc(C)c2cc(NC(=O)/C=C/c3ccccn3)ccc2n1 | 31.3 | – | –
